The results in this text go back to ChEMBL document CHEMBL1130155, “Synthesis and structure-activity relationships of potent thrombin inhibitors: piperazides of 3-amidinophenylalanine” (J Med Chem, 1997).

Data set [1] deals with Vitamin K-dependent protein C (Homo sapiens, UniProt P04070). As to the kind of experiment: Inhibitory activity against Activated protein C.
The target in data set [2] is Coagulation factor X (Bos taurus, UniProt P00743). The experiment in a line: Inhibitory activity against coagulation factor X.
Coagulation factor X, sequence (P00743 41-180 limits assumed): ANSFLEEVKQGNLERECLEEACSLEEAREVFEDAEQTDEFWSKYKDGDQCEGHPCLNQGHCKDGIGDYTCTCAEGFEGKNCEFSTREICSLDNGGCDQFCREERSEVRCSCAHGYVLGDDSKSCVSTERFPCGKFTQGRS
Coagulation factor X, sequence (P00743 234-492 limits assumed): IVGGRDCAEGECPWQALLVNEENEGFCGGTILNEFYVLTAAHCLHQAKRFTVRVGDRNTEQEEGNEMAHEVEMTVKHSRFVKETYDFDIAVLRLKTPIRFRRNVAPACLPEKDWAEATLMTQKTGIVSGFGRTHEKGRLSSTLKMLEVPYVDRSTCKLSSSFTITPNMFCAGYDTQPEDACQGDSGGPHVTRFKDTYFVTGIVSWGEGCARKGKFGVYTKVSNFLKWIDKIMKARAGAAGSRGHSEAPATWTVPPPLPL
The target of data set [3] is T1, Coagulation factor XII (Homo sapiens, UniProt P00748).
T1 sequence (P00748 whole entry): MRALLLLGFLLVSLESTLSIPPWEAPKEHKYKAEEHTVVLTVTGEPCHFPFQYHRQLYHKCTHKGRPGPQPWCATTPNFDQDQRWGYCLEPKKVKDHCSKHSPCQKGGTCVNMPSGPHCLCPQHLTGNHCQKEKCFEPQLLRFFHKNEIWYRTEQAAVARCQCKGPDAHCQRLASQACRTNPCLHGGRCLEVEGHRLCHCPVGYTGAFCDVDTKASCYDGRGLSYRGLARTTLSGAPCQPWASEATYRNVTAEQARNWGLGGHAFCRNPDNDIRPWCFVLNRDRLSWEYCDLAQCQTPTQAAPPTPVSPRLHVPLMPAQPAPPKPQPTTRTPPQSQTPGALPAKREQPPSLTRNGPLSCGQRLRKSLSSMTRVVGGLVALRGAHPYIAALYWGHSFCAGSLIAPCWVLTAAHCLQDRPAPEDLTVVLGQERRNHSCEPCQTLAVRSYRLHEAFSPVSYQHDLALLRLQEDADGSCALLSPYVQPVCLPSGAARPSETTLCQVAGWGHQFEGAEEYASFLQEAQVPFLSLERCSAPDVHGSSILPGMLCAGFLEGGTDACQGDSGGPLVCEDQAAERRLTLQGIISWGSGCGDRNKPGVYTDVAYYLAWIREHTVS
The experiment in a line: Inhibitory activity against Coagulation factor XII.

Data set [4] can be described thus: Concentration for doubling of partial thromboplastin time. The data set is classed as functional, Homo sapiens.
Data set [5] in a line: Concentration for doubling of prothrombin time. The data set is classed as functional, Homo sapiens.
Data set [6] in a line: Concentration for doubling of thrombin time. The data set is classed as functional, Homo sapiens.
The target in data set [7] is T2, Plasma kallikrein (Homo sapiens, UniProt P03952). As to the kind of experiment: Inhibitory activity against Kallikrein (PK).
T2 sequence (P03952 20-390 limits assumed): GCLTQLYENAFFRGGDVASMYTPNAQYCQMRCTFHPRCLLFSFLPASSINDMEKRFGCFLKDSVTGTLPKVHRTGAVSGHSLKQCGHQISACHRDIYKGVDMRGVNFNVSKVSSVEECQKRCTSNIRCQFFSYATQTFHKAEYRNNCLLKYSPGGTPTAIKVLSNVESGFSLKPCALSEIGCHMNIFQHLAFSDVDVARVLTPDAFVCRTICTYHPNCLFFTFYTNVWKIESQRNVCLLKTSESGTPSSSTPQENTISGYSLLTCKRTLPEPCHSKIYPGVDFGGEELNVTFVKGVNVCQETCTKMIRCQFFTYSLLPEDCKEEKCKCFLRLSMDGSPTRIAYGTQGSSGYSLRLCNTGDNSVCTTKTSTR
T2 sequence (P03952 391-638 limits assumed): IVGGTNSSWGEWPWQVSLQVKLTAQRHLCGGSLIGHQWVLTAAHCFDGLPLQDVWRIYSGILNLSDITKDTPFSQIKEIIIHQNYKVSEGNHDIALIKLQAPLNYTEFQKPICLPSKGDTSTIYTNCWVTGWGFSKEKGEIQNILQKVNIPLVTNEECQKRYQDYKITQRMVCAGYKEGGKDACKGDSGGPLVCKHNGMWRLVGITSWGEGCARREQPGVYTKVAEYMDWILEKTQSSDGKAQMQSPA
For data set [8], the target named is Plasminogen (Homo sapiens, UniProt P00747). As to the kind of experiment: Inhibitory activity against Plasmin.
Plasminogen, sequence (P00747 97-580 limits assumed): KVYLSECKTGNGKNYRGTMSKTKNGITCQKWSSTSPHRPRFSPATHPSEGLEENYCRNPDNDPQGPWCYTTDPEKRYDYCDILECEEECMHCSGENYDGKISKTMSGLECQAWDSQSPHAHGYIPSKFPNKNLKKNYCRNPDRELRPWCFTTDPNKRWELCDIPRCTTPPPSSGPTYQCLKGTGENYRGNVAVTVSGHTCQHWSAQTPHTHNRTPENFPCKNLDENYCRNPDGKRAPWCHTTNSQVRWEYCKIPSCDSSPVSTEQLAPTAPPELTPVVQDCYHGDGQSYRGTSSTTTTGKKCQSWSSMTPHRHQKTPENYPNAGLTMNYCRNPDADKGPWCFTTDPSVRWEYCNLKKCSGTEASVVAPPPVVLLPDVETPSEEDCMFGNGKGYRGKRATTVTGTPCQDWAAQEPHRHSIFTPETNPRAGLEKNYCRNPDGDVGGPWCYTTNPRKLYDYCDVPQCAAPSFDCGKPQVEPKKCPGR
Plasminogen, sequence (P00747 581-810 limits assumed): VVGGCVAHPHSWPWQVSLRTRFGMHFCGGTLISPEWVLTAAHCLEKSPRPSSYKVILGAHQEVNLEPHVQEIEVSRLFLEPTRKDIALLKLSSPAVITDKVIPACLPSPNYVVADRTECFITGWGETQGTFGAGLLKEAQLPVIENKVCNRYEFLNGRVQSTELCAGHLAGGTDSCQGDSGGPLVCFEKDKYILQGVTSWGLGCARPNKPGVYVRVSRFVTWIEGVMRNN
For data set [9], the target named is Tissue-type plasminogen activator (Homo sapiens, UniProt P00750). The experiment in a line: Inhibitory activity against single-chain tissue-type plasminogen activator (sc-tissue plasminogen activator).
Tissue-type plasminogen activator, sequence (P00750 whole entry): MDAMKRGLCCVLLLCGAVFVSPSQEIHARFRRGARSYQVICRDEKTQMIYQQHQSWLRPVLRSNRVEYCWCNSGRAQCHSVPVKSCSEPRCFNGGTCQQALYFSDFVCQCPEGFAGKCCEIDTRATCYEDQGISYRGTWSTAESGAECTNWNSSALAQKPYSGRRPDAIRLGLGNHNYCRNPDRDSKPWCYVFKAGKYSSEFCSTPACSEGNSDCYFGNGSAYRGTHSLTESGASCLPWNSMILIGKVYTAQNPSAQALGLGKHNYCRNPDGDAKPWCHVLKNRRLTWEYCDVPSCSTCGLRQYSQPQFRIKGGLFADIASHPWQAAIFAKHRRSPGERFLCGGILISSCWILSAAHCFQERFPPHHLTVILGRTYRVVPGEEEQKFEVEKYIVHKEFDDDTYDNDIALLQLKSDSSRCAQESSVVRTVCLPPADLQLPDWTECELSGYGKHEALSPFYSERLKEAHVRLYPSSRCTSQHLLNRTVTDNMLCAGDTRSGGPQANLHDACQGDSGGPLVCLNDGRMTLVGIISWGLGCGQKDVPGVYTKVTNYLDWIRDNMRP
Data set [10] deals with T3, Urokinase-type plasminogen activator (Homo sapiens, UniProt P00749). As to the kind of experiment: Inhibitory activity against UK.
Data set [11] concerns the target T4, Serine protease 1 (Bos taurus, UniProt P00760).
T4 sequence (P00760 whole entry): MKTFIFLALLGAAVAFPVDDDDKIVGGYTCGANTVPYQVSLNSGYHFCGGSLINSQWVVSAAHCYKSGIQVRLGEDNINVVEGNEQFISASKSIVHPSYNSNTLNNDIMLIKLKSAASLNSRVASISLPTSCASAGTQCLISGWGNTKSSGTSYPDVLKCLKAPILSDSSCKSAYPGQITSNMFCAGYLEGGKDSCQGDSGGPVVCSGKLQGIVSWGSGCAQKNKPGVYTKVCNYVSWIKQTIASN
The experiment in a line: Inhibitory activity against trypsin.

In data set [12] the target is T5, Prothrombin (Bos taurus, UniProt P00735).
For data set [13], the target named is T2, Plasma kallikrein. The experiment in a line: Inhibitory activity against plasma kallikrein (PK.). Type of data set: cell-free.
Data set [14] addresses T3, Urokinase-type plasminogen activator. The experiment in a line: Inhibitory activity against urokinase (UK ).
Data set [15] addresses T5, Prothrombin. As to the kind of experiment: Inhibitory activity against thrombin.
The nature of data set [16]: 1 mg/kg was administered intravenously in anesthetized rats and the concentration in plasma was determined after 240 minutes. The note with it: rat, iv.
A short description of data set [17]: 1 mg/kg was administered intravenously in anesthetized rats and the concentration in plasma was determined after 30 minutes. Particulars: rat, iv.
Data set [18] is described as follows: 1 mg/kg was administered intravenously in anesthetized rats and the concentration in plasma was determined after 45 minutes. The note with it: rat, iv.
A short description of data set [19]: 1 mg/kg was administered intravenously in anesthetized rats and the concentration in plasma was determined after 5 minutes. Particulars: rat, iv.
Data set [20] in a line: 1 mg/kg was administered intravenously in anesthetized rats and the concentration in plasma was determined after 60 minutes. The note with it: rat, iv.
A short description of data set [21]: 1 mg/kg was administered intravenously in anesthetized rats and the concentration in plasma was determined after 90 minutes. The note with it: rat, iv.
Data set [22] in a line: 50 mg/kg was administered orally in anesthetized rats and the concentration in plasma was determined after 120 minutes. The note with it: rat, po.
The nature of data set [23]: 50 mg/kg was administered orally in anesthetized rats and the concentration in plasma was determined after 15 minutes. Type of data set: ADME, organism-based. The note with it: rat, po, read-out: Activity.
Data set [24] can be described thus: 50 mg/kg was administered orally in anesthetized rats and the concentration in plasma was determined after 180 minutes. The note with it: rat, po.
The nature of data set [25]: 50 mg/kg was administered orally in anesthetized rats and the concentration in plasma was determined after 30 minutes. Particulars: rat, po.
Data set [26] can be described thus: 50 mg/kg was administered orally in anesthetized rats and the concentration in plasma was determined after 45 minutes. The data set is classed as ADME, organism-based. The note with it: rat, po, read-out: Activity.
Data set [27] can be described thus: 50 mg/kg was administered orally in anesthetized rats and the concentration in plasma was determined after 5 minutes. The data set is classed as ADME, organism-based. The note with it: rat, po, read-out: Activity.
Data set [28] can be described thus: 50 mg/kg was administered orally in anesthetized rats and the concentration in plasma was determined after 60 minutes. The note with it: rat, po.
Data set [29] in a line: 1 mg/kg was administered intravenously in anesthetized rats and the concentration in plasma was determined after 120 minutes. The note with it: rat, iv.
A short description of data set [30]: 1 mg/kg was administered intravenously in anesthetized rats and the concentration in plasma was determined after 15 minutes. Particulars: rat, iv.
Data set [31] is described as follows: 1 mg/kg was administered intravenously in anesthetized rats and the concentration in plasma was determined after 180 minutes. Particulars: rat, iv.
The nature of data set [32]: 50 mg/kg was administered orally in anesthetized rats and the concentration in plasma was determined after 90 minutes. Type of data set: ADME, organism-based. The note with it: rat, po, read-out: Activity.
Data set [33] can be described thus: 1 mg/kg was administered intravenously in anesthetized rats and the concentration in plasma was determined after 2 minutes. Particulars: rat, iv.

Molecules are shown by their SMILES.

Vitamin K-dependent protein C, sequence (P04070 43-197 limits assumed): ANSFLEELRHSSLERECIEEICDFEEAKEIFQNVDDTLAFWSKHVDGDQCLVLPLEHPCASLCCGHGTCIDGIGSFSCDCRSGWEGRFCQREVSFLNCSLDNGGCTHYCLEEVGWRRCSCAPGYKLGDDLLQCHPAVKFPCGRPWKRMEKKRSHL
Vitamin K-dependent protein C, sequence (P04070 212-461 limits assumed): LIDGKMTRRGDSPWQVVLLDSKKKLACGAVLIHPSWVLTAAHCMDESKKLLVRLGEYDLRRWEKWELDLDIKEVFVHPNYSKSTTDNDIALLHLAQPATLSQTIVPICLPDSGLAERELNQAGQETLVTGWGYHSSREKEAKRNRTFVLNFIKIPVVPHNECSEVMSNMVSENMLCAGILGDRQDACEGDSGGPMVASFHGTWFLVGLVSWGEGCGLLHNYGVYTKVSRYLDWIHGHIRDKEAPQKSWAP

Turning to `CN(C)C(=O)N1CCN(C(=O)[C@@H](Cc2cccc(C(=N)N)c2)NS(=O)(=O)c2ccc3ccccc3c2)CC1`, the Ki (usually a measure of affinity in units of concentration, obtained from inhibition or displacement) was 13.5 µM in data set [1]; 16 µM in [2]; 61 µM in data set [3]; 7.3 µM in data set [7]; 4.9 µM in [8]; over 1000 µM in data set [9]. Moreover, the Ki in data set [10] was 28 µM; in data set [11] it was 0.097 µM; in [12] it was 0.004 µM. Besides, the half-inhibitory concentration (IC50) (usually the concentration at which inhibition is half-maximal) in data set [4] was 0.39 µM; in [5] it was 0.72 µM; in data set [6], 0.042 µM.

On to `CN1CCN(C(=O)[C@@H](Cc2cccc(C(=N)N)c2)NS(=O)(=O)c2ccc3ccccc3c2)CC1`, for which the Ki was 94 µM in data set [1]; 19 µM in data set [2]; 280 µM in data set [3]; 35 µM in [13]; 30 µM in data set [8]; over 1000 µM in data set [9]. The Ki in data set [14] worked out at 110 µM; in [11], 0.47 µM; in [12] it was 0.016 µM. Moreover, the IC50 turned out to be 1.2 µM in data set [4], 1.8 µM in [5] and 0.22 µM in [6].

For `CS(=O)(=O)N1CCN(C(=O)[C@@H](Cc2cccc(C(=N)N)c2)NS(=O)(=O)c2ccc3ccccc3c2)CC1`, the Ki amounted to 15.2 µM in [1]; 19 µM in data set [2]; 52 µM in data set [3]; 58 µM in data set [7]; 9 µM in data set [8]; 190 µM in [9]. Moreover, the Ki amounted to 28 µM in data set [10] and 0.067 µM in data set [11]. The IC50 in [4] came to 0.26 µM; in data set [5], 0.39 µM; in data set [6], 0.037 µM.

For the molecule `CC1CCN(C(=O)[C@@H](Cc2cccc(C(=N)N)c2)NS(=O)(=O)c2ccc3ccccc3c2)CC1`, the Ki in data set [15] stood at 0.0025 µM.

Turning to `CC(=O)N1CCN(C(=O)[C@@H](Cc2cccc(C(=N)N)c2)NS(=O)(=O)c2ccc3ccccc3c2)CC1`, the concentration at 4 h in data set [16] is under 40 ng/mL. For the same molecule, the results for the concentration at 0.5 h in data set [17] and in data set [25] were 270 ng/mL and 450 ng/mL, respectively. Also, the concentration at 0.75 h was determined as 170 ng/mL in data set [18] and 410 ng/mL in [26]. The concentration at 5 min in data set [19] was 2080 ng/mL; in [27], 230 ng/mL. The concentration at 1 h in data set [20] is 130 ng/mL; in [28], 380 ng/mL. Moreover, the results for the concentration at 1.5 h in data set [21] and in [32] were 100 ng/mL and 270 ng/mL, respectively. Besides, the concentration at 2 h in [22] was 260 ng/mL; in [29] it was 90 ng/mL. Further, the figures for the concentration at 0.25 h in data set [23] and in data set [30] were 410 ng/mL and 610 ng/mL, respectively. Moreover, the concentration at 3 h in [24] was 300 ng/mL; in [31], under 40 ng/mL. Also, the Ki in data set [1] worked out at 12 µM; in data set [2], 34 µM; in data set [3], 200 µM; in data set [7], 15 µM; in data set [8], 5.2 µM; in data set [9] it was 410 µM. In addition, the Ki in data set [10] is 32 µM; in data set [11], 0.044 µM. Moreover, the figures for the IC50 in [4], in data set [5] and in data set [6] were 0.28 µM, 0.76 µM and 0.062 µM, respectively. Besides, the concentration at 2 min in [33] is 3550 ng/mL.

Turning to `N=C(N)c1cccc(C[C@@H](NS(=O)(=O)c2ccc3ccccc3c2)C(=O)N2CCN(CCO)CC2)c1`, the Ki was determined as 39 µM in [1]; 22 µM in data set [2]; 400 µM in data set [3]; 27 µM in data set [7]; 21 µM in data set [8]; 180 µM in data set [9]. Besides, the inhibitory constant (Ki) in data set [10] turned out to be 140 µM; in data set [11], 0.6 µM; in data set [12], 0.037 µM. Further, the IC50 in [4] came out at 0.56 µM; in data set [5], 1.1 µM; in [6] it was 0.14 µM.

In the case of `N=C(N)c1cccc(C[C@@H](NS(=O)(=O)c2ccc3ccccc3c2)C(=O)N2CCN(C=O)CC2)c1`, the Ki in [1] came out at 10.3 µM; in data set [2] it was 9.7 µM; in data set [3] it was 53 µM; in data set [7], 3.3 µM; in data set [8] it was 3.3 µM; in data set [9], 110 µM. Also, the Ki in [10] was determined as 34 µM; in data set [11], 0.073 µM; in data set [12], 0.023 µM. Moreover, the IC50 in [4] was found to be 0.35 µM; in data set [5] it was 0.7 µM; in data set [6], 0.063 µM.
